Laboratory results published in patent US20250145608A1, “KRAS DEGRADING COMPOUNDS COMPRISING ANNULATED 2-AMINO-3-CYANO THIOPHENES” (Boehringer Ingelheim Int'l GmbH Corp., priority 2021, published 2025).
Read-outs that look alike come from different tables or passages of the source.

Tests used:
Format in all cases: cell-based
SK—CO-1 cells = assay: SK-CO-1 CTG proliferation assay (120 h) (CRC, G12V); conditions: Homo sapiens, SK-CO-1 proliferation
Protocol: SK—CO-1 CTG Proliferation Assay (120 h) (CRC, G12V)
(§1) SK—CO-1 cells (ATCC HTB-39) are dispensed into 384-well plates, flat and clear bottom (Greiner, PNr. 781091) at a density of 500 cells per well in 60 μL EMEM (Sigma M5650)+10% Fetal Calf Serum (HyClone, PNr.: SH30084.03) and incubated at 37° C. in a CO2 incubator overnight. The next day, compounds (10 mM stock in DMSO) are added with the ECHO acoustic liquid handler system (Beckman Coulter), including DMSO controls. Plates are incubated for 120 h, and cell viability is measured using CellTiter-Glo luminescent cell viability reagent (Promega product code G7570). Viability (stated as percent of control) is defined as relative luminescence units RLU of each well divided by the RLU of cells in DMSO controls. IC50 values are determined from viability measurements by non-linear regression using a four-parameter model.

KRAS(G12D) = molecular target: T1, KRAS(G12D) (Homo sapiens, UniProt P01116, G12D); assay: HiBit degradation assay in GP5d-HiBit-KRAS(G12D) cells (18 h; DC50, Dmax)
T1 construct: introduced immediately downstream of the initiating Methionine codon of the endogenous KRAS locus; host or cells: GP5d-HiBit-KRAS(G12D), a CRISPR knock-in at the endogenous locus
Method in brief: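 GP5d cells carry an endogenous N-terminal HiBit tag on KRAS(G12D), knocked in by CRISPR. They were seeded overnight in DMEM/10% FCS, exposed to compound for 18 h at 37° C, then lysed for HiBit luminescence, normalised to DMSO. DC50 comes from a four-parameter logistic fit; Dmax is maximal degradation as % of control.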

NCI-H358 cells = assay: NCI-H358 CTG proliferation assay (120 h) (NSCLC, G12C); conditions: Homo sapiens
Method in brief: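 NCI-H358 cells (KRAS G12C) were seeded at 2000/well (assay 1) or 200/well (assay 2) in RPMI-1640 + 10% FCS and dosed with a logarithmic series, DMSO-normalized. After 120 h, viability was read by CellTiter-Glo luminescence as percent of DMSO control, with a T0 read at dosing. IC50 came from a four-parameter fit.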

SAS cells = assay: SAS CTG proliferation assay (120 h) (HNSCC, wt amplified)
Protocol: SAS CTG Proliferation Assay (120 h) (HNSCC, Wt Amplified)
as §1, with “SAS” for “SK—CO-1”, “(JCRB0260)” for “(ATCC HTB-39)”, “300” for “500”, “DMEM:F12 (Gibco 31330-038)+10%” for “EMEM (Sigma M5650)+10%”

LOVO cells = assay: LOVO CTG proliferation assay (120 h) (CRC, G13D); conditions: Homo sapiens
Protocol: LOVO CTG Proliferation Assay (120 h) (CRC, G13D)
as §1, with “LOVO” for “SK—CO-1”, “CCL-229)” for “HTB-39)”, “1000” for “500”, “DMEM” for “EMEM”, “D6429)+10%” for “M5650)+10%”

[1] = assay 1, read-out: H358 (assay 1) IC50
[2] = assay 2, read-out: H358 (assay 2) IC50

T1 sequence (P01116 1-188 isoform P01116-2 G12D): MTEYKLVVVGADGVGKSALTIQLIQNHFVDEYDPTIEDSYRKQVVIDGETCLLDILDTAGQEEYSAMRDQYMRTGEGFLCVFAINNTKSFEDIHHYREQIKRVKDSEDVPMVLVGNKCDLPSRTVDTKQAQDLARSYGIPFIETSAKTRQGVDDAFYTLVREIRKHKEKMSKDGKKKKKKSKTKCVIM

Row | IC50 (SK—CO-1 cells) [nM] | DC50 (KRAS(G12D)) [nM] | Dmax 18 h (KRAS(G12D)) [% Ctrl] | IC50 (NCI-H358 cells; [1]) [nM] | IC50 (NCI-H358 cells; [2]) [nM] | IC50 (LOVO cells) [nM] | SMILES | IC50 (SAS cells) [nM]
1 | 22.6 | 1.6 | 94 | 59.6 | 14.9 | 29.3 | Cc1ncsc1-c1ccc([C@@H](NC(=O)[C@@H]2C[C@@H](O)CN2C(=O)[C@H](C(C)C)n2cc(OCCCCN3CCCN(c4nccc(-c5noc([C@@]6(C)CCCc7sc(N)c(C#N)c76)n5)n4)[C@@H](C)C3)nn2)[C@H](C)O)cc1 (single isomer, unassigned) [I-41] | 30.3
2 | 26.2 | 1.2 | 93 | 50.8 | 8.1 | 22.2 | Cc1ncsc1-c1ccc([C@@H](NC(=O)[C@@H]2C[C@@H](O)CN2C(=O)[C@H](C(C)C)n2cc(OCCCN3CCCN(c4nccc(-c5noc([C@@]6(C)CCCc7sc(N)c(C#N)c76)n5)n4)[C@@H](C)C3)nn2)[C@H](O)C(C)C)cc1 (single isomer, unassigned) [I-43] | 411
3 | 132 | 4.4 | 93 | 159 | – | 344 | Cc1ncsc1-c1ccc([C@H](CO)NC(=O)[C@@H]2C[C@@H](O)CN2C(=O)[C@H](C(C)C)n2cc(OC(C)CCCN3CCCN(c4nccc(-c5noc([C@@]6(C)CCCc7sc(N)c(C#N)c76)n5)n4)[C@@H](C)C3)nn2)cc1 (stereo partly drawn) [I-31] | 90
4 | 24.3 | 2 | 93 | 28.8 | – | 44 | Cc1ncsc1-c1ccc([C@H](CO)NC(=O)[C@@H]2C[C@@H](O)CN2C(=O)[C@H](C(C)C)n2cc(OCCCCN3CCCN(c4nccc(-c5noc([C@@]6(C)CCCc7sc(N)c(C#N)c76)n5)n4)[C@@H](C)C3)nn2)cc1 [I-29] | 548
5 | 184 | 3.9 | 91 | 231 | 85.5 | 1820 | CC(C)C(C(=O)N1C[C@H](O)C[C@H]1C(=O)NCc1ccc(C#N)cc1)c1cc(OCCCCN2CCCN(c3nccc(-c4noc([C@@]5(C)CCCc6sc(N)c(C#N)c65)n4)n3)[C@@H](C)C2)no1 (stereo partly drawn) [I-16] | 29.7
6 | 117 | 3.3 | 93 | 98.8 | – | 597 | Cc1ncsc1-c1ccc([C@H](CCO)NC(=O)[C@@H]2C[C@@H](O)CN2C(=O)[C@H](C(C)C)n2cc(OCCCCN3CCCN(c4nccc(-c5noc([C@@]6(C)CCCc7sc(N)c(C#N)c76)n5)n4)[C@@H](C)C3)nn2)cc1 [I-38] | 58.1
7 | 51.7 | 2.9 | 93 | 60.5 | 35.2 | 40.9 | Cc1ncsc1-c1ccc(CNC(=O)[C@@H]2C[C@@H](O)CN2C(=O)[C@@H](c2cc(OCCCCN3CCCN(c4nccc(-c5noc([C@@]6(C)CCCc7sc(N)c(C#N)c76)n5)n4)[C@@H](C)C3)no2)C(C)C)cc1 (single isomer, unassigned) [I-27] | 94.6
8 | 207 | 4.3 | 94 | 445 | 196 | 425 | Cc1ncsc1-c1ccc(CNC(=O)[C@@H]2C[C@@H](O)CN2C(=O)C(c2cc(OCCCCN3CCCN(c4nccc(-c5cc([C@@]6(C)CCCc7sc(N)c(C#N)c76)on5)n4)[C@@H](C)C3)no2)C(C)C)cc1 (stereo partly drawn) [I-4] | 628
9 | 57.3 | 2.3 | 94 | 45.6 | 63.9 | 53.5 | Cc1ncsc1-c1ccc(CNC(=O)[C@@H]2C[C@@H](O)CN2C(=O)[C@@H](c2cc(OCCCN3CCCN(c4nccc(-c5noc([C@@]6(C)CCCc7sc(N)c(C#N)c76)n5)n4)[C@@H](C)C3)no2)C(C)C)cc1 (single isomer, unassigned) [I-25] | 17.8
10 | 2220 | 200 | 81 | 1070 | 1440 | 1950 | Cc1ncsc1-c1ccc(CNC(=O)[C@@H]2C[C@@H](O)CN2C(=O)[C@H](c2cc(OCCCN3CCCN(c4nccc(-c5noc([C@@]6(C)CCCc7sc(N)c(C#N)c76)n5)n4)[C@@H](C)C3)no2)C(C)C)cc1 (single isomer, unassigned) [I-24] | 1310
11 | 29.7 | 1.4 | 94 | 29.3 | – | 86.4 | Cc1ncsc1-c1ccc([C@H](CO)NC(=O)[C@@H]2C[C@@H](O)CN2C(=O)[C@H](C(C)C)n2cc(OCCCC(C)N3CCCN(c4nccc(-c5noc([C@@]6(C)CCCc7sc(N)c(C#N)c76)n5)n4)[C@@H](C)C3)nn2)cc1 (stereo partly drawn) [I-30] | 15.2
12 | 45 | 1.5 | 93 | 32 | 81.4 | 649 | Cc1ncsc1-c1ccc([C@H](C)NC(=O)[C@@H]2C[C@@H](O)CN2C(=O)C(C(C)C)n2cc(OCCCCN3CCCN(c4nccc(-c5noc([C@@]6(C)CCCc7sc(N)c(C#N)c76)n5)n4)[C@@H](C)C3)nn2)cc1 (stereo partly drawn) [I-28] | 58.3
13 | 33.3 | 1.4 | 93 | 98.6 | 13.4 | 43 | Cc1ncsc1-c1ccc([C@@H](NC(=O)[C@@H]2C[C@@H](O)CN2C(=O)[C@H](C(C)C)n2cc(OCCCCN3CCCN(c4nccc(-c5noc([C@@]6(C)CCCc7sc(N)c(C#N)c76)n5)n4)[C@@H](C)C3)nn2)[C@H](O)C(C)C)cc1 (single isomer, unassigned) [I-45] | 1810
